For series [1], the species on record is Rattus norvegicus. The series can be described thus: Ratio in isolated cardiac myocytes under anoxic/oxic conditions. The format is functional, cell-based.
The species entered for series [2] is Rattus norvegicus. As to the kind of experiment: In vitro evaluation of efficacy of BAPN in isolated cardiac myocytes under normoxia condition. The format is functional, cell-based.
The species named for series [3] is Rattus norvegicus. As to the kind of experiment: In vitro evaluation of efficacy of BAPN in isolated cardiac myocytes under anoxic/oxic conditions. The format is functional, cell-based.
The species entered for a further series is Bos taurus. As to the kind of experiment: Compound was evaluated for permeability index in cultured bovine endothelial cell monolayer system. Particulars: cattle. The format is ADME.
For series [4], the species on record is Rattus norvegicus. As to the kind of experiment: In vitro evaluation of efficacy of BAPN in isolated cardiac myocytes under anoxia condition. The format is functional, cell-based.

99m Tc-BMS 181321 [listing 1 of 2 here]: the values for the Ratio in the series listed under Rattus norvegicus [1] and in the series filed under Rattus norvegicus [3] were 3.03% and 3.03, respectively. In the series listed under Rattus norvegicus [2], this substance came in with a Retention of 17.6%.

In the case of 99m Tc-BAPN [listing 1 of 2 here], the Permeability index in the series listed under Bos taurus is given as -0.25 Pi.

In the case of 99m Tc-BAPN [listing 2 of 2 here], the Ratio in the series filed under Rattus norvegicus [1] was 1.08. Moreover, the Retention worked out at 38.2% in the series listed under Rattus norvegicus [2] and 41.4% in the series listed under Rattus norvegicus [4].

99m Tc-BMS 181321 [listing 2 of 2 here] came in with a Permeability index in the series filed under Bos taurus of 63.2 Pi.

For the origin of these results see ChEMBL document CHEMBL1127421, “The synthesis and in vitro evaluation of a 99mtechnetium-nitroimidazole complex based on a bis(amine-phenol) ligand: comparison to BMS-181321” (J Med Chem, 1994).
